BindingDB's records for doi:10.1021/jm990590f (Dupont Pharmaceuticals, 2000)

Key:
[1] = target: Corticotropin-releasing factor receptor 1 (Rattus norvegicus) (UniProt P35353); assay: Inhibition of corticotropin releasing factor receptor mediated increase in cAMP level using rat cortical homogenates in vitro.
[2] = target: Corticotropin-releasing factor receptor 1 (Rattus norvegicus) (UniProt P35353); assay: Compound was tested for the inhibition of binding of the radioligand, [125 I-Tyr0]-CRF to rat cerebral cortex membrane

Chain of Corticotropin-releasing factor receptor 1 (Rattus norvegicus) (P35353 whole entry, looked up): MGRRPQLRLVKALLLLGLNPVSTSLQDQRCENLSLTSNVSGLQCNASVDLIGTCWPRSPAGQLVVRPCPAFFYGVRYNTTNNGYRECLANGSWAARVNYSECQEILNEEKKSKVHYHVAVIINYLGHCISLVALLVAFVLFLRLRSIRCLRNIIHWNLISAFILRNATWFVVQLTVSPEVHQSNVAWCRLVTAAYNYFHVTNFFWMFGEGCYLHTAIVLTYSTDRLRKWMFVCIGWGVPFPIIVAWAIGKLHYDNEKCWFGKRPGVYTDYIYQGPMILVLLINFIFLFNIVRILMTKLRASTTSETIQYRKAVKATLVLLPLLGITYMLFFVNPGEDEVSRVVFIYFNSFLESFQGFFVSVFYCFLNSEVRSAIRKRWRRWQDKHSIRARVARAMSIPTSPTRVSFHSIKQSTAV

IC50 [1] [nM] | Ki [2] [nM] | Structure (SMILES)
79 |  | COCC(COC)n1nnc2c(Nc3c(C)cc(C)cc3Cl)nc(C)cc21 [DMP-695]
 | 63 | CCN(c1nc(C)cc(N2CCOCC2)n1)c1ccc(C(C)C)cc1Br [(2-Bromo-4-isopropyl-phenyl)-ethyl-(4-methyl-6-morpholin-4-yl-pyrimidin-2-yl)-amine]
